Assay: Urinary levels of norepinephrine and normetanephrine in depressed patients treated with desipramine
Assay type: in vivo
Description: (Plasma levels of normetanephrine were not measured in these studies.)

[1] = by the fourth week of treatment

In the case of `CNCCCN1c2ccccc2CCc2ccccc21` [desipramine], the “urinary levels of norepinephrine” value (after one week of treatment) is reported as “small decreases”, the “urinary levels of normetanephrine” value (after one week of treatment) is reported as “small decreases” and the “urinary levels of norepinephrine” value [1] is reported as “statistically significant increases”. The “urinary levels of normetanephrine” value [1] was “statistically significant increases”.
